“Also recorded” adds a separate entry of the source.
Key:
Primo 2CA cells = assay: Glycerophosphate dehydrogenase (GPDH) activity during adipocyte differentiation of Primo 2CA cells; assay type: cell-based; conditions: Primo 2CA cells T24 in the presence of human bFGF
Description: (§1) The confluent cells are incubated in a DMEM/Ham's F12 (vol/vol, 1:1) medium supplemented with 100 U/ml of penicillin, 100 μg/ml of streptomycin, 5 μg/ml of human insulin (Sigma), 10 μg/ml of human transferrin (Sigma), 1 μM of PPAR activator (for example BRL49653), 100 to 250 μM of isobutyl-methylxanthine (IBMX) and 1 μM of dexamethasone. 48 to 72 hours later, this medium is replaced by the medium described above but containing no IBMX and dexamethasone. This differentiation medium is replaced every 2-3 days for a period of 15 to 20 days corresponding to an optimum adipocyte differentiation. Firstly, the cells which are to have the GPDH activity measure, are lysed. […] The reading is made with a spectrophotometer, allowing kinetic measurements to be carried out (KONTRON Uvicon 860 thermostatted at 37° C.).

Primo 2CS cells = assay: Glycerophosphate dehydrogenase (GPDH) activity during adipocyte differentiation of Primo 2CS cells; assay type: cell-based; conditions: Primo 2CS cells T22 in the presence of human bFGF; after 13 days of differentiation (3 experiments); control 22
Description: as §1

[1] = test system: adipocytes obtained from Primo 2CA T32 cells; assay: Lipolysis test (glycerol liberated by adipocytes in the presence of adrenergic receptor agonists); assay type: cell-based, human; conditions: adipocytes from Primo 2CA T32 cells (about 140 population doublings); control 5.76
Description: Lipolyses were carried out on adipocytes obtained from Primo 2CA T32 cells (about 140 population doublings), with agonists specific for different β-adrenergic receptors.
This test consists of measuring the radiolabelled glycerol liberated by adipocytes in the presence of adrenergic receptor agonists. The method used is that described by Bradley D C and Kaslow H R (Anal Biochem, 1989, 180, 11-16). The glycerol liberated is phosphorylated in the presence of glycerokinase and ATP and ATP labeled with ^32P in the […]. The residual ATP is then hydrolyzed in an acid medium at 90° C. and precipitated with ammonium molybdate and triethylamine. The radioactivity incorporated in the form of glycerophosphate labelled with ^32P is estimated by counting in a β counter and the values are expressed in pmol using a calibration curve.
Lipolyses were carried out on Primo 2CA T32 cells with specific agonists for the different β adrenergic receptors, namely: • Isoproterenol: β1, β2 adrenergic • Dobutamine: β1 adrenergic • Terbutaline: β2 adrenergic • CL316243 β3 adrenergic: […]

[2] = test system: stem cells of the invention; assay: Effect of Leukemia Inhibitory Factor on morphology and proliferation of the stem cells; assay type: cell-based, human; conditions: LIF 10 ng/ml
Description: For this enrichment step, different culture media were tested.

CA population = assay: Effect of bFGF on proliferation of the quiescent CA population; assay type: cell-based, human
Description: The addition of growth factors such as bFGF incorporated, for example, at a concentration of about 3 to 20 ng/ml of medium, in particular 5 to 10 ng/ml, not only halves the population doubling time (for example the population doubling time without bFGF is about 72 hours, while it is about 36 hours with bFGF), but also allows the population to reach confluence. Without growth factors, proliferation of a quiescent population of stem cells of the invention can be provoked by trypsination and dilution, but proliferation will spontaneously stop at about 70% confluence. Since confluence is indispensable in vitro for initiating the differentiation of many cell types, the use of growth factors such as bFGF must be envisaged for in vitro production of this type of differentiated cell.
These observations confirm the quiescent state of the CA population and the state of senescence in the CS population.
After establishing a population of quiescent CA cells, human bFGF (basic Fibroblast Growth Factor) is added to the culture medium described above in a concentration of 5 ng/ml of medium.

CS population = assay: Effect of bFGF on proliferation of the CS population at late stages; assay type: cell-based, human; conditions: bFGF 5 ng/ml, after 50 population doublings

With `CN(CCOc1ccc(CC2SC(=O)NC2=O)cc1)c1ccccn1` (stereo not shown) [BRL49653] the GPDH activity (Primo 2CA cells; after 11 days of differentiation (2 experiments), control 77) was 290 nmol/min/mg of protein, the GPDH activity (Primo 2CA cells; after 16 days of differentiation (3 experiments), control 20) was 390 nmol/min/mg of protein and the GPDH activity (Primo 2CS cells) was 30 nmol/min/mg of protein.
With `C[C@H](Cc1ccc2c(c1)OC(C(=O)[O-])(C(=O)[O-])O2)NC[C@H](O)c1cccc(Cl)c1.[Na+].[Na+]` [CL316243] the lipolysis rate [1] was 17.1 nmol/h/mg of protein.
`CC(CCc1ccc(O)cc1)NCCc1ccc(O)c(O)c1` (stereo not shown) [Dobutamine] was tested, and the lipolysis rate [1] was 60.1 nmol/h/mg of protein.
In the case of `CC(C)(C)NCC(O)c1cc(O)cc(O)c1` (stereo not shown) [Terbutaline], the lipolysis rate [1] is reported as 93.78 nmol/h/mg of protein.
LIF: Leukemia Inhibitory Factor was tested, and the “effect on morphology or proliferation of the cells” value [2] was “no change in the morphology or proliferation; also recorded: no changes in morphology or proliferation”.
With “bFGF: human basic Fibroblast Growth Factor” the “effect on proliferation of CA population” value (CA population; bFGF 5 ng/ml, late stages, after 50 population doublings) was “effectively respond”, the population doubling time (CA population; with bFGF (about 3 to 20 ng/ml), about 72 hours without bFGF) was “about 36 hours” and the “effect on proliferation of CS population” value (CS population) was “no significant effect; also recorded: practically no effect”.

Reference: patent publication US8334135B2, “Stem cells from adipose tissue, and differentiated cells from said cells” (Yves Saint Laurent Parfums, priority 2002, dated 2012)
